# According to patent publication US10906910B2, “Substituted bicyclic pyrimidine compounds with tubulin and multiple receptor inhibition” (Duquesne University of the Holy Spirit, priority 2014, dated 2021):
# Columns and labels:
# MOLT-4 = assay: NCI 60 panel, Leukemia MOLT-4; format: cell-based; details: Homo sapiens, read-out: Tumor cell inhibitory activity (NCI) GI50
# HOP-92 = assay: NCI 60 panel, NSCLC HOP-92; format: cell-based; details: Homo sapiens, read-out: Tumor cell inhibitory activity (NCI) GI50
# K-562 = assay: NCI 60 panel, Leukemia K-562; format: cell-based; details: Homo sapiens, K562, read-out: Tumor cell inhibitory activity (NCI) GI50
# KM12 = assay: NCI 60 panel, Colon Cancer KM12; format: cell-based; details: Homo sapiens, read-out: Tumor cell inhibitory activity (NCI) GI50
# MALME-3M = assay: NCI 60 panel, Melanoma MALME-3M; format: cell-based; details: Homo sapiens, read-out: Tumor cell inhibitory activity (NCI) GI50
# MCF7 = assay: NCI 60 panel, Breast Cancer MCF7; format: cell-based; details: Homo sapiens, read-out: Tumor cell inhibitory activity (NCI) GI50
# COLO 205 = assay: NCI 60 panel, Colon Cancer COLO 205; format: cell-based; details: Homo sapiens, read-out: Tumor cell inhibitory activity (NCI) GI50
# RXF 393 = assay: NCI 60 panel, Renal Cancer RXF 393; format: cell-based; details: Homo sapiens, read-out: Tumor cell inhibitory activity (NCI) GI50
# SNB-19 = assay: NCI 60 panel, CNS Cancer SNB-19; format: cell-based; details: Homo sapiens, read-out: Tumor cell inhibitory activity (NCI) GI50
# HT29 = assay: NCI 60 panel, Colon Cancer HT29; format: cell-based; details: Homo sapiens, HT-29, read-out: Tumor cell inhibitory activity (NCI) GI50
# SN12C = assay: NCI 60 panel, Renal Cancer SN12C; format: cell-based; details: Homo sapiens, read-out: Tumor cell inhibitory activity (NCI) GI50
# HOP-62 = assay: NCI 60 panel, NSCLC HOP-62; format: cell-based; details: Homo sapiens, read-out: Tumor cell inhibitory activity (NCI) GI50
# CAKI-1 = assay: NCI 60 panel, Renal Cancer CAKI-1; format: cell-based; details: Homo sapiens, read-out: Tumor cell inhibitory activity (NCI) GI50
# A498 = assay: NCI 60 panel, Renal Cancer A498; format: cell-based; details: Homo sapiens, read-out: Tumor cell inhibitory activity (NCI) GI50
# [1] = test system: blood vessel formation in the chicken chorioallantoic membrane (CAM); assay: chicken chorioallantoic membrane (CAM) antiangiogenic activity assay; format: in vivo; details: Gallus gallus
# LOX IMVI = assay: NCI 60 panel, Melanoma LOX IMVI; format: cell-based; details: Homo sapiens, read-out: Tumor cell inhibitory activity (NCI) GI50
# NCI/ADR-RES = assay: NCI 60 panel, Ovarian cancer NCI/ADR-RES; format: cell-based; details: Homo sapiens, read-out: Tumor cell inhibitory activity (NCI) GI50
# HCT-116 = assay: NCI 60 panel, Colon Cancer HCT-116; format: cell-based; details: Homo sapiens, read-out: Tumor cell inhibitory activity (NCI) GI50
# SK-MEL-28 = assay: NCI 60 panel, Melanoma SK-MEL-28; format: cell-based; details: Homo sapiens, read-out: Tumor cell inhibitory activity (NCI) GI50
# VEGFR2 = VEGFR2 (Homo sapiens, UniProt P35968); assay: VEGFR2 kinase inhibition, whole-cell assay; format: cell-based; details: read-out: kinase inhibition IC50 [whole-cell assays] VEGFR2
# Sequence of VEGFR2 (P35968 20-1356, species assumed): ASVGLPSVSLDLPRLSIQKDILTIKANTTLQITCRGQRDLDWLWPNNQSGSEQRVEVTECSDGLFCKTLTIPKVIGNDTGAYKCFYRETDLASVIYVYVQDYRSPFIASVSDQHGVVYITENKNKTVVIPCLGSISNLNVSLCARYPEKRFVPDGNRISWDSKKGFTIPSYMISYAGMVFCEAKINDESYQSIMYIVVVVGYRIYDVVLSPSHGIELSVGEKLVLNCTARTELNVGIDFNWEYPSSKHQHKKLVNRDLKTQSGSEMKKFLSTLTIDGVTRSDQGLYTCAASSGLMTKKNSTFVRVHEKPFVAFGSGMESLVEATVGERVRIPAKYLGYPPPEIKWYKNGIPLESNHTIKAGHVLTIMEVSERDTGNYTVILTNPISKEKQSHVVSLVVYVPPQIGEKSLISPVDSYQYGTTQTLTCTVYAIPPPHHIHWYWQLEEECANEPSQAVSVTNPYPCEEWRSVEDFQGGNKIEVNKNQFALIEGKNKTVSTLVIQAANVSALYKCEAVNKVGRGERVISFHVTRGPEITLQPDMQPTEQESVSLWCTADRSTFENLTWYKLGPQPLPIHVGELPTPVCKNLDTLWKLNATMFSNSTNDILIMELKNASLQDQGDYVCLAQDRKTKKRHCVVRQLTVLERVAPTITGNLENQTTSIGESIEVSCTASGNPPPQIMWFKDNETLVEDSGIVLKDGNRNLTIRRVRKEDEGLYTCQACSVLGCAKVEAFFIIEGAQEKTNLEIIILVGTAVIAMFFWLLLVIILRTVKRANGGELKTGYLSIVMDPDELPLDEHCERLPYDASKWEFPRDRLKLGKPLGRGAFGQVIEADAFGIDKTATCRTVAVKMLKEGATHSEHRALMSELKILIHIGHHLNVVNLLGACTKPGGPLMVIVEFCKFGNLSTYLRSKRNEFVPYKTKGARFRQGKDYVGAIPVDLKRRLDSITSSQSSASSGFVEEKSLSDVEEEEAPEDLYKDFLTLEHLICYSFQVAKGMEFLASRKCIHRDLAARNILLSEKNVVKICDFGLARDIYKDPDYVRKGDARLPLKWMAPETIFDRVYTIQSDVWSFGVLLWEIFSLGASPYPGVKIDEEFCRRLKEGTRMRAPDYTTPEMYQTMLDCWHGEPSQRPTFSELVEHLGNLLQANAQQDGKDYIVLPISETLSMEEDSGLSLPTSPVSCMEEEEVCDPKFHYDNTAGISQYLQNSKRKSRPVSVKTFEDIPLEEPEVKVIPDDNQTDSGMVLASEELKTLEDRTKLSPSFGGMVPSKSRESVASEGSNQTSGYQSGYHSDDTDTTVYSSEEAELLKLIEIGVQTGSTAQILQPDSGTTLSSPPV
# SK-MEL-5 = assay: NCI 60 panel, Melanoma SK-MEL-5; format: cell-based; details: Homo sapiens, read-out: Tumor cell inhibitory activity (NCI) GI50
# HS 578T = assay: NCI 60 panel, Breast Cancer HS 578T; format: cell-based; details: Homo sapiens, read-out: Tumor cell inhibitory activity (NCI) GI50
# SW-620 = assay: NCI 60 panel, Colon Cancer SW-620; format: cell-based; details: Homo sapiens, read-out: Tumor cell inhibitory activity (NCI) GI50
# OVCAR-5 = assay: NCI 60 panel, Ovarian cancer OVCAR-5; format: cell-based; details: Homo sapiens, read-out: Tumor cell inhibitory activity (NCI) GI50
# SK-MEL-2 = assay: NCI 60 panel, Melanoma SK-MEL-2; format: cell-based; details: Homo sapiens, read-out: Tumor cell inhibitory activity (NCI) GI50
# M14 = assay: NCI 60 panel, Melanoma M14; format: cell-based; details: Homo sapiens, read-out: Tumor cell inhibitory activity (NCI) GI50
# PDGFRβ = PDGFRβ (Homo sapiens, UniProt P09619); assay: PDGFRβ kinase inhibition, whole-cell assay; format: cell-based
# Sequence of PDGFRβ (P09619 33-1106, species assumed): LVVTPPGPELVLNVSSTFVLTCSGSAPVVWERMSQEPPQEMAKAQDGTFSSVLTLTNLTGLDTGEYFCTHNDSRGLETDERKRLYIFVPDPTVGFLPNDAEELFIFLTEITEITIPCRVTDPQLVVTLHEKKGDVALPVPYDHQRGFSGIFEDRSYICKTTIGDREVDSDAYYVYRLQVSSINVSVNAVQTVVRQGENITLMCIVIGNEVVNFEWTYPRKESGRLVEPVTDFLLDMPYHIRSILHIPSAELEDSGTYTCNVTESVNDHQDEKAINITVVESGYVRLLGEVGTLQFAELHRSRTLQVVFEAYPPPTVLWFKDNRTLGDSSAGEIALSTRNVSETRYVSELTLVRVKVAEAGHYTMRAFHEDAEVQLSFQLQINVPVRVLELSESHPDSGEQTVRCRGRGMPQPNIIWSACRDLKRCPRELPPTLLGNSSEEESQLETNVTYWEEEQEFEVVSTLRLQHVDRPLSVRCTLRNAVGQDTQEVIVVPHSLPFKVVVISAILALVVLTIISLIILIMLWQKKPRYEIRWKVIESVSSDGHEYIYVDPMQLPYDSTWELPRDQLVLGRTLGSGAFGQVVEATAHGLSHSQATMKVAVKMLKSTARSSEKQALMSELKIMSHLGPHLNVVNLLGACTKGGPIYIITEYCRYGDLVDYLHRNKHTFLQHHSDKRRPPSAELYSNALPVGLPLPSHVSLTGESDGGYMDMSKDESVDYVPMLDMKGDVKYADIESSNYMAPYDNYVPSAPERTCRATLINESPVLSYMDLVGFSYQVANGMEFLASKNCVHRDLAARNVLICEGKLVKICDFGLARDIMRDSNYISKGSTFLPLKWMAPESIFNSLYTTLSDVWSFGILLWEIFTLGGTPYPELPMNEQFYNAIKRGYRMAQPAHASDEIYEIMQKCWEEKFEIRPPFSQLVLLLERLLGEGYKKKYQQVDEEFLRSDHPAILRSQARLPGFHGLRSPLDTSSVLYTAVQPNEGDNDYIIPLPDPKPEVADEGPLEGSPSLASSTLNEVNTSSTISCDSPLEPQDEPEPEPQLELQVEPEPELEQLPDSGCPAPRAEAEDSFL
# RPMI-8226 = assay: NCI 60 panel, Leukemia RPMI-8226; format: cell-based; details: Homo sapiens, read-out: Tumor cell inhibitory activity (NCI) GI50
# HCC-2998 = assay: NCI 60 panel, Colon Cancer HCC-2998; format: cell-based; details: Homo sapiens, read-out: Tumor cell inhibitory activity (NCI) GI50
# ACHN = assay: NCI 60 panel, Renal Cancer ACHN; format: cell-based; details: Homo sapiens, read-out: Tumor cell inhibitory activity (NCI) GI50
# UACC-62 = assay: NCI 60 panel, Melanoma UACC-62; format: cell-based; details: Homo sapiens, read-out: Tumor cell inhibitory activity (NCI) GI50
# EGFR = EGFR (Homo sapiens, UniProt P00533); assay: EGFR kinase inhibition, whole-cell assay; format: cell-based; details: read-out: kinase inhibition IC50 [whole-cell assays] EGFR
# Sequence of EGFR (P00533 25-1210, species assumed): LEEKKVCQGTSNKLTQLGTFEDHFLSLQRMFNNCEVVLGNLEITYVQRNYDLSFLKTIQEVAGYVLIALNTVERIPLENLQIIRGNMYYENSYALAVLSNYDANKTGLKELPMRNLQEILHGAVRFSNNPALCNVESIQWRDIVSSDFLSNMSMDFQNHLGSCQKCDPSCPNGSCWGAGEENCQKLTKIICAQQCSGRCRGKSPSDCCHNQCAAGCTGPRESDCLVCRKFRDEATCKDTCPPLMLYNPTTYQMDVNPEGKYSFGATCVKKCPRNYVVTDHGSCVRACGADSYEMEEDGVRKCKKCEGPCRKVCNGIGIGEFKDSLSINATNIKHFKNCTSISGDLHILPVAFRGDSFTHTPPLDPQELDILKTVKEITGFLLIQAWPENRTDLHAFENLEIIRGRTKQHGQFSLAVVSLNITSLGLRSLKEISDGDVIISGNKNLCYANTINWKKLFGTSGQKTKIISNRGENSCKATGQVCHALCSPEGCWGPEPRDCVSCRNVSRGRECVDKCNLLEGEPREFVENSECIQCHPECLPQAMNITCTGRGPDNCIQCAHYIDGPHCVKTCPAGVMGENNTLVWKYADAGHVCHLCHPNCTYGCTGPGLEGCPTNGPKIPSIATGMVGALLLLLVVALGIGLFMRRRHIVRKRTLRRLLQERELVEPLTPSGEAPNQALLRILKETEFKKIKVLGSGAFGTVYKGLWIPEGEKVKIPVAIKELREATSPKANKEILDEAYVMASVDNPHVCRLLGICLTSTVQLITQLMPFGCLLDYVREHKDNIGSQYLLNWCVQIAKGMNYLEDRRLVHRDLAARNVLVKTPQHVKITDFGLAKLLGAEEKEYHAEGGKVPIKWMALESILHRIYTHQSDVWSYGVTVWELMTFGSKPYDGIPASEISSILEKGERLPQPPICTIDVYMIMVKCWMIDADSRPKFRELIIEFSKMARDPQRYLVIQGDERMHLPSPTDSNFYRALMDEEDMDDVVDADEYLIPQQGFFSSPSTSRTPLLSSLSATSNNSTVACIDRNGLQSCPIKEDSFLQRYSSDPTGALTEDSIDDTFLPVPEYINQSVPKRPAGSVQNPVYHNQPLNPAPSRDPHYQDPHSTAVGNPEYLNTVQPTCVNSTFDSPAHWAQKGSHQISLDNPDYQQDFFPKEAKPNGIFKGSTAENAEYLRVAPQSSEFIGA
# PC-3 = assay: NCI 60 panel, Prostate Cancer PC-3; format: cell-based; details: Homo sapiens, read-out: Tumor cell inhibitory activity (NCI) GI50
# SK-OV-3 = assay: NCI 60 panel, Ovarian cancer SK-OV-3; format: cell-based; details: Homo sapiens, read-out: Tumor cell inhibitory activity (NCI) GI50
# OVCAR-3 = assay: NCI 60 panel, Ovarian cancer OVCAR-3; format: cell-based; details: Homo sapiens, read-out: Tumor cell inhibitory activity (NCI) GI50
# SNB-75 = assay: NCI 60 panel, CNS Cancer SNB-75; format: cell-based; details: Homo sapiens, read-out: Tumor cell inhibitory activity (NCI) GI50
# NCI-H322M = assay: NCI 60 panel, NSCLC NCI-H322M; format: cell-based; details: Homo sapiens, read-out: Tumor cell inhibitory activity (NCI) GI50
# A549/ATCC = assay: NCI 60 panel, NSCLC A549/ATCC; format: cell-based; details: Homo sapiens, read-out: Tumor cell inhibitory activity (NCI) GI50
# HL-60(TB) = assay: NCI 60 panel, Leukemia HL-60(TB); format: cell-based; details: Homo sapiens, read-out: Tumor cell inhibitory activity (NCI) GI50
# DU-145 = assay: NCI 60 panel, Prostate Cancer DU-145; format: cell-based; details: Homo sapiens, read-out: Tumor cell inhibitory activity (NCI) GI50
# SF-268 = assay: NCI 60 panel, CNS Cancer SF-268; format: cell-based; details: Homo sapiens, read-out: Tumor cell inhibitory activity (NCI) GI50
# NCI-H23 = assay: NCI 60 panel, NSCLC NCI-H23; format: cell-based; details: Homo sapiens, read-out: Tumor cell inhibitory activity (NCI) GI50
# 786-0 = assay: NCI 60 panel, Renal Cancer 786-0; format: cell-based; details: Homo sapiens, read-out: Tumor cell inhibitory activity (NCI) GI50
# MDA-MB-435 = assay: NCI 60 panel, Melanoma MDA-MB-435; format: cell-based; details: Homo sapiens, read-out: Tumor cell inhibitory activity (NCI) GI50
# [2] = test system: tubulin (colchicine site); assay: inhibition of [3H]colchicine binding to tubulin; parameters: species or system bovine
# UACC-257 = assay: NCI 60 panel, Melanoma UACC-257; format: cell-based; details: Homo sapiens, read-out: Tumor cell inhibitory activity (NCI) GI50
# A431 cells = assay: A431 cytotoxicity; format: cell-based; details: Homo sapiens, A-431
# SF-539 = assay: NCI 60 panel, CNS Cancer SF-539; format: cell-based; details: Homo sapiens, read-out: Tumor cell inhibitory activity (NCI) GI50
# SF-295 = assay: NCI 60 panel, CNS Cancer SF-295; format: cell-based; details: Homo sapiens, read-out: Tumor cell inhibitory activity (NCI) GI50
# NCI-H460 = assay: NCI 60 panel, NSCLC NCI-H460; format: cell-based; details: Homo sapiens, read-out: Tumor cell inhibitory activity (NCI) GI50
# MDA-MB-468 = assay: NCI 60 panel, Breast Cancer MDA-MB-468; format: cell-based; details: Homo sapiens, read-out: Tumor cell inhibitory activity (NCI) GI50
compound,measurement,setting,value
"COc1ccc(N(C)c2nc(C)nc3c(Cc4ccccc4)cn(C)c23)cc1 [Compound 4, 7-Benzyl-N-(4-methoxyphenyl)-N,2,5-trimethyl-5H-pyrrolo[3,2-d]pyrimidin-4-amine]",GI50,MOLT-4,50.8 nM
same,GI50,HOP-92,47.1 nM
same,GI50,K-562,33.7 nM
same,GI50,KM12,44.5 nM
same,GI50,MALME-3M,17.7 nM
same,GI50,MCF7,33.3 nM
same,GI50,COLO 205,26.3 nM
same,GI50,RXF 393,25.4 nM
same,GI50,SNB-19,54.7 nM
same,GI50,HT29,35.1 nM
same,GI50,SN12C,88.7 nM
same,GI50,HOP-62,47.8 nM
same,GI50,CAKI-1,56.6 nM
same,GI50,A498,20.2 nM
same,IC50,[1],2200 ± 400 nM
same,GI50,LOX IMVI,58.8 nM
same,GI50,NCI/ADR-RES,32.8 nM
same,GI50,HCT-116,35 nM
same,GI50,SK-MEL-28,48.7 nM
same,IC50,VEGFR2,33 nM
same,GI50,SK-MEL-5,54.2 nM
same,GI50,HS 578T,62.3 nM
same,GI50,SW-620,38.4 nM
same,GI50,OVCAR-5,269 nM
same,GI50,SK-MEL-2,28.6 nM
same,GI50,M14,29.5 nM
same,"potency against PDGFRβ, in words",PDGFRβ,potencies comparable with DMBI
same,IC50,"PDGFRβ; whole-cell assay, read-out: kinase inhibition IC50 [whole-cell assays] PDGFRβ",10.3 nM
same,GI50,RPMI-8226,36.9 nM
same,GI50,HCC-2998,71.1 nM
same,GI50,ACHN,172 nM
same,GI50,UACC-62,475 nM
same,IC50,EGFR,2.3 ± 0.3 nM
same,GI50,PC-3,49.6 nM
same,GI50,SK-OV-3,45.4 nM
same,GI50,OVCAR-3,35.2 nM
same,GI50,SNB-75,27.8 nM
same,GI50,NCI-H322M,73.6 nM
same,GI50,A549/ATCC,44 nM
same,GI50,HL-60(TB),26.8 nM
same,GI50,DU-145,44.4 nM
same,GI50,SF-268,350 nM
same,GI50,NCI-H23,45.8 nM
same,GI50,786-0,93.2 nM
same,GI50,MDA-MB-435,21.4 nM
same,inhibition of colchicine binding (1 μM inhibitor),"[2]; 1 μM inhibitor, [3H]colchicine, in % (unit assumed)",73 ± 3
same,inhibition of colchicine binding (5 μM inhibitor),"[2]; 5 μM inhibitor, [3H]colchicine, in % (unit assumed)",92 ± 0.2
same,"inhibition of [3H]colchicine binding to tubulin, in words",[2]; compared with combretastatin A-4,potent inhibitors
same,GI50,UACC-257,78.2 nM
same,IC50,A431 cells,1.2 nM
same,GI50,SF-539,25.4 nM
same,GI50,SF-295,30.4 nM
same,GI50,NCI-H460,38.7 nM
same,GI50,MDA-MB-468,30.1 nM
